Values of other authors in patent publication US12036548B2, “Organs-on-chips as a platform for epigenetics discovery” (EMULATE, INC., priority 2018, dated 2024).

Conditions: normal nutritional iodine supply

For `II` [iodine], the “fraction taken up and stored by a normally functioning thyroid gland” value is given as 15-30%.
